Patent US8524637B2, “Composition for controlling pests and method for controlling pests” (Sumitomo Chemical Company, Limited, priority 2008, dated 2013)

System: Rhizoctonia solani
Experiment: Cucumber seed treatment test against Rhizoctonia solani (Test Example 1)
Format: in vivo
Details: cucumber seeds, acetone solution, seven days after seeding
Source text: An emulsifiable concentrate was obtained by mixing clothianidin and metconazole.
In accordance with Seed Treatment Example 5, cucumber (Sagami Hanjiro) seeds were smeared with the emulsifiable concentrate using a rotary seed treating machine (seed dresser, manufactured by Hans-Ulrich Hege GmbH).
The obtained treated seeds were allowed to stand overnight and sown on the soil with which each plastic pot was filled and then covered with the soil mixed with Rhizoctonia solani cultured in a bran culture medium. While sprinkling, culture was conducted in a greenhouse. Seven days after seeding, the number of seeds not showing epicotyl emergence was checked and severity was calculated using Equation 1 shown below. Based on the severity, the control value was calculated using Equation 2.
For comparison, acetone solutions each having a predetermined concentration of clothianidin or metconazole were prepared by mixing each of clothianidin and metconazole with acetone, and the same test was carried out. Severity=(number of seeds not showing epicotyl emergence)×100/(total number of sown seeds) Equation 1 Control value=100×(A−B)/A Equation 2 • A: Severity of plants of the chemical non-treated district • B: Severity of plants of the chemical treated district

CN/C(=N\[N+](=O)[O-])NCc1cnc(Cl)s1 [Clothianidin, clothianidin]
Control value (clothianidin 200 g, metconazole 0 g per 100 kg of seeds): 4

CC1(C)CCC(Cc2ccc(Cl)cc2)C1(O)Cn1cncn1 (centres unmarked) [Metconazole, metconazole]
Control value (clothianidin 0 g, metconazole 1 g per 100 kg of seeds): 39
